Series [1] can be described thus: Dynamic light scattering (DLS) of MGs. Format: physicochemical. The settings on record: At 3.2 mg/mL THF; for Diameter (nm): injected in nanopure water. The procedure:
The self-assembly of the glycoliposomes into vesicles and liposomes involved the injection method of their solution in a water miscible solvent such as ethanol or tetrahydrofuran (THF) into water or buffer. […] The resulting assemblies were first analyzed by dynamic light scattering (DLS) for size, polydispersity (PDI), and stability in time. For liposome size determination, solutions of the glycolipids (3.5 mg) in THF (1.1 mL) were then diluted in distilled water (2.2 mL) to provide final concentrations of 1.06 mg/mL. Particle size distributions were measured in water using a Zetasizer® Nano S90 from Malvern Instruments (UK) equipped with 4 mW He—Ne laser 633 nm and avalanche photodiode positioned at 90° to the beam and temperature-controlled cuvette holder. Instrument parameters were determined automatically along with measurement times. Experiments were performed in triplicate at 25° C.
Different solutions of 12a (C8), 12c (C12), 12d (C14), 12e (C16), 22c (C12), 22d (C14), 22e (C16) in THF and EtOH were prepared from 0.5 mg/mL to 10 mg/mL. 100 μL of these preparations were injected in a constant 2 mL of nanopure water followed by 5 seconds of vortexing, and analyzed by DLS, to determine the diameter size of the MGs, as shown in Table 2.

For another series, the system named is HeLa cells. The series is described as follows: Nile Red cellular uptake, HeLa. Format: cell-based, human. As for the experimental part: Murine dendritic cells JAWSII (ATCC® CRL-11904™) were grown in RPMI-1640 medium (HyClone, Logan UT) supplemented with 8% FBS (Gibco, Grand Island NY), 100 units/ml penicillin/streptomycin (HyClone, Logan UT) and 5 ng/mL of GM-CSF (Invitrogen, Frederick MD) at 37° C. and 5% CO2. Once confluent, cells were collected using 0.25% Trypsin-EDTA (Gibco, Grand Island NY). Murine macrophage cells J774A.1 (ATCC® TIB-67™) and human malignant cells HeLa (ATCC® CCL-2™; Cederlane, Burlington, ON, Canada) were grown […] (DMEM) high glucose (HyClone, Logan, UT) supplemented with 10% FBS and 100 units/ml penicillin/streptomycin at 37° C. and 5% CO2. Once confluent, cells were collected using a cell scraper. Viability was assessed prior to experiments by Trypan Blue (Gibco, Grand Island NY) exclusion where the viability was >90%. Cells were seeded at 3×10^5 cells in 300 μL in a 96 multi-well plate and left untreated or were treated with 10 μg/mL of empty liposomes MG12d or MGC12, 1 μg/mL of Nile Red (Sigma, St-Louis MO), or 1 μg/mL of Nile Red encapsulated in 10 μg/mL of MG12d or MGC12. […] Mean fluorescence intensity was analysed using the Cytomics FC-500 flow cytometer (Beckman Coulter, Fullerton CA) using the FL3 channel where […] were measured. Data was analyzed using the CXP Analysis Software. […]

The nature of series [2]: In vivo Dynantin distribution after intranasal treatment. The settings on record: intranasal Dynantin 2 μg, 20 minutes.

Marks after values point to notes of the source that are not given here.

Take `CCCCCCCCCCCCOc1ccc(C(=O)NCCCCCCO[C@H]2O[C@H](CO)[C@@H](O)[C@H](O)[C@@H]2O)cc1OCCCCCCCCCCCC` [12c, 6-Bis(dodecyloxy)benzamido-N-hexyl α-D-mannopyranoside]: in series [1], the “Polydispersity Index (PDI)” value is 0.202 and the “Diameter (nm)” value is 267 ^a nm.
The like results for `CCCCCCCCOc1ccc(C(=O)NCCCCCCO[C@H]2O[C@H](CO)[C@@H](O)[C@H](O)[C@@H]2O)cc1OCCCCCCCC` [12a, 6-Bis(octacyloxy)benzamido-N-hexyl α-D-mannopyranoside] were, in that order, 0.178 and 300^a nm.
Regarding `CCN(CC)c1ccc2nc3c4ccccc4c(=O)cc-3oc2c1` [Nile Red], the “Nile Red uptake / staining” value in the series with HeLa cells is reported as “no staining”.
Regarding `CC[C@H](C)[C@H](NC(=O)[C@H](CCCN=C(N)N)NC(=O)[C@H](CCCN=C(N)N)NC(=O)[C@H](CC(C)C)NC(=O)[C@H](Cc1ccccc1)NC(=O)CNC(=O)CNC(=O)[C@@H](C)Cc1c(C)cc(O)cc1C)C(=O)N[C@@H](CCCN=C(N)N)C(=O)N1CCC[C@H]1C(=O)N[C@@H](CCCCN)C(N)=O` [Dynantin], in series [2] (brain), the “Brain (%), percentage of total dose recovered” value came to 8.15 ± 3.06% and the “Dynantin levels in the brain” value is on record as “detectable levels”. Moreover, the “Lung (%), percentage of total dose recovered” value in series [2] (lung) is listed as 4.93 ± 0.89%. In series [2] (sera), the “Sera (%), percentage of total dose recovered” value was 21.66 ± 3.99%.
Turning to “6-bis(tetradecyloxy)benzamido-N-hexyl α-D-mannopyranoside [12d]”, in series [1], the “Polydispersity Index (PDI)” value came out at 0.040 and the “Diameter (nm)” value was 286 ^a nm.

The values above are taken from patent publication US12691069B2, “Synthetic glycolipids and glycoliposome compositions : suitable for cargo delivery to the central nervous system” (KORANEX CAPITAL, priority 2022, dated 2026).
